According to patent US10604523B2, “1-aryl-4-methyl-[1,2,4]triazolo[4,3-a]quinoxaline derivatives” (Janssen Pharmaceutica NV, priority 2011, dated 2020):
Where two headings read alike, the source gives them in different places. Blank lines part the entries; values can stand above or below the compound they belong to.

Key:
[1] = Biodistribution study of [18F]B-23; settings: normal rats, mean ± SD, n=3
Procedure: The biodistribution study was carried out in male Wistar rats (body weight 320-370 g) at 2 min, 10 min and 30 min post injection (p.i.) (n=3/time point). […] Blood and major organs were collected in tared tubes and weighed. The radioactivity in blood, organs and other body parts was measured using an automated gamma counter. The distribution of radioactivity in different parts of the body at different time points p.i. of the tracer was calculated and expressed as percentage of injected dose (% ID), and as standardized uptake values (SUV) for the selected organs. % ID is calculated as counts per minute (cpm) in organ/total cpm recovered. SUVs are calculated as (radioactivity in cpm in organ/weight of the organ in g)/(total counts recovered/body weight in g). For calculation of total radioactivity in blood, blood mass was assumed to be 7% of the body mass.

[2] = Plasma radiometabolite analysis of [18F]B-23; format: in vivo, rat; settings: rat plasma, n=1
Procedure: The metabolic stability of the tracer was studied in normal rats by determination of the relative amounts of parent tracer and radiometabolites in plasma and brain at 2 min and 10 min p.i. of the tracer. […] (n=1), blood was collected in lithium heparin containing tubes (4.5 mL LH PST tubes; BD vacutainer, BD, Franklin Lakes, USA) and stored on ice. Brain was dissected and rinsed with saline (decapitation was preferred since it was difficult to have the rat perfused already at 2 min p.i.). For the 10 min timepoint, rats (n=1) were injected with about 37 MBq of tracer and sacrificed at 10 min p.i by administering an overdose of Nembutal (CEVA Sante Animale, 200 mg/kg intraperitoneal). The rats were perfused by injection of saline into the left ventricle until the liver turned pale. During perfusion, blood was collected and stored on ice. Brain was isolated.
For the plasma radiometabolite analysis, the blood was centrifugated for 10 min at 3000 rpm to separate the plasma. A volume of about 0.1 mL of plasma sample was isolated and spiked with about 10 μL of authentic non-radioactive reference material (1 mg/mL) for identification. The plasma was then injected onto an HPLC system consisting of a Chromolith Performance column (C18, 3 mm×100 mm, Merck) that was eluted with mixtures of 0.05 M NaOAc pH 5.5 (solvent A) and acetonitrile (solvent B). The following method was used for the analysis: isocratic elution with 100% A for 4 min at a flow rate of 0.5 mL/min, then linear gradient to 90% B by 14 min at a flow rate of 1 mL/min, and isocratic elution with a mixture of 10% A and 90% B at a flow rate of 1 mL/min until 17 min. After passing through an in-line UV detector (254 nm) and over a 3 in. NaI(Tl) scintillation detector connected to a single channel analyzer (Gabi box, Raytest, Straubenhardt Germany), the HPLC eluate was collected per minute using an automatic fraction collector. The radioactivity in all fractions was measured using an automated gamma counter. The peak corresponding to the intact tracer eluted at ˜11 min. Polar radiometabolite(s) were eluting from 1 to 3 min. Slightly more polar radiometabolites (relatively to the polarity of the intact tracer) were eluting just before the intact tracer. Faster metabolisation is observed in plasma compared to brain. At 2 min p.i., about 70% of the recovered radioactivity was present as intact tracer. Two more polar radiometabolites (M1, M3) were observed of which one (M3) was closely eluting to the intact tracer. At 10 min p.i., the presence of a large amount of a third polar metabolite (M2, also closely eluting to the parent compound) was observed which accounted for about 60% of the recovered radioactivity. At 10 min p.i., only ˜20% of the recovered radioactivity was still present as intact tracer.

[3] = system: cAMP and cGMP levels in the rat brain (hippocampus and striatum); assay: Effect of PDE-inhibitors ex-vivo studies in rat: cAMP and cGMP levels in brain; settings: 10 mg/kg s.c., -1 h
Procedure: Upon arrival, the animals (body weight 210-240 g) were housed in groups of 5 and fed normal chow at libitum.
Compounds and/or solvent were administered either orally, subcutaneously or IV. […] After microwave, the rats were decapitated and the heads cooled immediately with ice cold physiological saline. […] 10 vol (w/v) of 0.1N HCl were added. The tissue was homogenized for 3 min at 30 Hz using a Tissuelyser from Qiagen.
The homogenate was transferred into an Eppendorf tube (1.5 ml) and after centrifugation for 15 min at 1600 g in a pre-cooled (4C) Eppendorf centrifuge, the supernatant was collected and stored at −80° C. until analysis.
The cAMP and cGMP levels were measured in the rat brain (hippocampus and striatum) to establish in vivo target engagement and central pharmacological effect of PDE2 inhibition.

[4] = target: T1, Rat recombinant PDE10A (rPDE10A2) (Rattus norvegicus, UniProt Q9QYJ6); assay: In vitro assay PDE10A (SPA, 3H-cAMP); format: biochemical; settings: read-out: PIC50 PDE10 (converted)
T1 construct: made in house; host or cells: Sf9 insect cells (baculovirus)
T1 sequence (Q9QYJ6 1-794): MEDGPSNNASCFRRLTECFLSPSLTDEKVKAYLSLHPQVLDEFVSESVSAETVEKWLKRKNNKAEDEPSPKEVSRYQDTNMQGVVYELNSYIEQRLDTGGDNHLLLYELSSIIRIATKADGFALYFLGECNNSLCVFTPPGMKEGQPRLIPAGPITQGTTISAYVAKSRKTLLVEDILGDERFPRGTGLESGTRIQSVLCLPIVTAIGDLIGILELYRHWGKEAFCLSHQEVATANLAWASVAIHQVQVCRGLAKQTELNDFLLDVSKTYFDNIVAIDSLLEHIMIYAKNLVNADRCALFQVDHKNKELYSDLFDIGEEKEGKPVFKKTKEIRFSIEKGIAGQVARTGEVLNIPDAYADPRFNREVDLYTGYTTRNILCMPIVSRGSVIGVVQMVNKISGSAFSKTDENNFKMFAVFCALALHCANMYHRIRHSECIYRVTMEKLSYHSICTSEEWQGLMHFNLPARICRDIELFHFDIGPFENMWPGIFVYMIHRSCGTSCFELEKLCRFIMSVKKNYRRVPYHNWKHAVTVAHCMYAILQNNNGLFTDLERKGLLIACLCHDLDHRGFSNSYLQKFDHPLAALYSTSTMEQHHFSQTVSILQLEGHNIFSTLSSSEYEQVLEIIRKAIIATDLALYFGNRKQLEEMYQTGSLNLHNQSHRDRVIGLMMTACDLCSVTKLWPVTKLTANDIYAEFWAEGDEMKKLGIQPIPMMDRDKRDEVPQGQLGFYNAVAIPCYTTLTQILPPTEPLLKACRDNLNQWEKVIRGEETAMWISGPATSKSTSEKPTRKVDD

[5] = system: Apomorphine-induced agitation; assay: Reversal of Apomorphine-induced Agitation in Rats (APO); format: in vivo, rat; settings: for PO Max effect (cumulative agitation score over 60 min) / SC Max effect (cumulative agitation score over 60 min): apomorphine 1.0 mg/kg i.v.; for PO LAD (lowest active dose) / SC LAD (lowest active dose): lowest dose at which ≥67% tested animals respond; for SC Dose at max effect / SC Max effect (cumulative agitation score over 60 min) / SC LAD (lowest active dose): subcutaneous route
Procedure: Apomorphine (1.0 mg/kg, i.v.)-induced agitation was scored every 5 min over the first hour after injection of apomorphine. The score system was: (3) pronounced, (2) moderate, (1) slight, and (0) absent. […] For the present purpose, the cumulative agitation score over the whole 60-min observation period was used as a measure to describe the maximum effect (Max effect).

[6] = target: T2, Human recombinant PDE2A (hPDE2A) (Homo sapiens, UniProt O00408); assay: In vitro assay PDE2A (SPA, 3H-cGMP); format: biochemical; settings: read-out: pIC50 PDE2 (converted)
T2 construct: made in house; host or cells: Sf9 insect cells (baculovirus)
T2 sequence (O00408 whole entry): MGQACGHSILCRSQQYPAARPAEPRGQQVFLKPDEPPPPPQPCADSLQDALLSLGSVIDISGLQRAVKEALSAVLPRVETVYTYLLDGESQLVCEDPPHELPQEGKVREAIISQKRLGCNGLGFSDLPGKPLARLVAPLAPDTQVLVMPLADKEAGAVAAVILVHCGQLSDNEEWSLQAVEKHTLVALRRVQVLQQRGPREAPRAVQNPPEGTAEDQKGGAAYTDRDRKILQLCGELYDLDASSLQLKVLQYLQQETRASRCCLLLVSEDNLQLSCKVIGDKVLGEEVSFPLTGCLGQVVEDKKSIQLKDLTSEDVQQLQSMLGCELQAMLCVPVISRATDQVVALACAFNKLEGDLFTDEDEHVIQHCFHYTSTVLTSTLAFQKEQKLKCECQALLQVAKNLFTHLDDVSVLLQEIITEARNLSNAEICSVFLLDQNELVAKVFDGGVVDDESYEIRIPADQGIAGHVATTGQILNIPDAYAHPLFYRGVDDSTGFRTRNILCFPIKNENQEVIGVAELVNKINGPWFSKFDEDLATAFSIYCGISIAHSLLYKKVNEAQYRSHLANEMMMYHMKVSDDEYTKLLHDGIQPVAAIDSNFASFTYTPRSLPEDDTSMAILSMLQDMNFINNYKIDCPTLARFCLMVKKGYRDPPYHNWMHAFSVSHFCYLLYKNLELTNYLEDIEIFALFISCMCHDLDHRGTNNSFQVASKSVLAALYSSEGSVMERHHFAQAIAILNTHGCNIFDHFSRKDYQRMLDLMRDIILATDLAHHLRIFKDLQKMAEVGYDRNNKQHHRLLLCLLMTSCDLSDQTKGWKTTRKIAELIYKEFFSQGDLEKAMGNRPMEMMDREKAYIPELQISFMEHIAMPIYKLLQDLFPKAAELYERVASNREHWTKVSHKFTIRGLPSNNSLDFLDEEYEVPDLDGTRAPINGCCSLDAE

SMILES: Cc1nc2ccc(CN3CCOCC3)cc2n2c(-c3c([18F])cccc3Cl)nnc12 [[18F]B-23, 1-[2-Chloro-6-(^18F)fluorophenyl]-4-methyl-8-(morpholin-4-ylmethyl)[1,2,4]triazolo[4,3-a]quinoxaline]
% ID Blood ([1]; 2 min p.i.): 6.69 ± 0.4 % ID | % ID Carcass ([1]; 2 min p.i.): 42.54 ± 4.8 % ID | % ID Cerebellum ([1]; 2 min p.i.): 0.096 ± 0.022 % ID | % ID Cerebrum total ([1]; 2 min p.i.): 1.030 ± 0.130 % ID | % ID Cortex ([1]; 2 min p.i.): 0.086 ± 0.017 % ID | % ID Heart ([1]; 2 min p.i.): 0.81 ± 0.0 % ID | % ID Hippocampus ([1]; 2 min p.i.): 0.036 ± 0.002 % ID | % ID Intestines ([1]; 2 min p.i.): 9.51 ± 1.1 % ID | % ID Kidneys ([1]; 2 min p.i.): 4.68 ± 0.7 % ID | % ID Liver ([1]; 2 min p.i.): 30.79 ± 4.6 % ID | % ID Lungs ([1]; 2 min p.i.): 2.27 ± 1.2 % ID | % ID Rest of cerebrum ([1]; 2 min p.i.): 0.809 ± 0.130 % ID | % ID Spleen + Pancreas ([1]; 2 min p.i.): 1.57 ± 0.1 % ID | % ID Stomach ([1]; 2 min p.i.): 2.44 ± 0.3 % ID | % ID Striatum ([1]; 2 min p.i.): 0.098 ± 0.010 % ID | % ID Urine ([1]; 2 min p.i.): 0.25 ± 0.1 % ID | % ID Blood ([1]; 10 min p.i.): 6.27 ± 0.5 % ID | % ID Carcass ([1]; 10 min p.i.): 37.39 ± 4.9 % ID | % ID Cerebellum ([1]; 10 min p.i.): 0.020 ± 0.002 % ID | % ID Cerebrum total ([1]; 10 min p.i.): 0.212 ± 0.006 % ID | % ID Cortex ([1]; 10 min p.i.): 0.016 ± 0.004 % ID | % ID Heart ([1]; 10 min p.i.): 0.23 ± 0.0 % ID | % ID Hippocampus ([1]; 10 min p.i.): 0.006 ± 0.001 % ID | % ID Intestines ([1]; 10 min p.i.): 10.97 ± 1.5 % ID | % ID Kidneys ([1]; 10 min p.i.): 6.02 ± 1.2 % ID | % ID Liver ([1]; 10 min p.i.): 37.83 ± 3.3 % ID | % ID Lungs ([1]; 10 min p.i.): 0.68 ± 0.1 % ID | % ID Rest of cerebrum ([1]; 10 min p.i.): 0.159 ± 0.006 % ID | % ID Spleen + Pancreas ([1]; 10 min p.i.): 0.42 ± 0.0 % ID | % ID Stomach ([1]; 10 min p.i.): 2.77 ± 0.8 % ID | % ID Striatum ([1]; 10 min p.i.): 0.031 ± 0.005 % ID | % ID Urine ([1]; 10 min p.i.): 0.61 ± 0.5 % ID | % ID Blood ([1]; 30 min p.i.): 4.10 ± 0.6 % ID | % ID Carcass ([1]; 30 min p.i.): 23.75 ± 1.9 % ID | % ID Cerebellum ([1]; 30 min p.i.): 0.011 ± 0.005 % ID | % ID Cerebrum total ([1]; 30 min p.i.): 0.084 ± 0.026 % ID | % ID Cortex ([1]; 30 min p.i.): 0.006 ± 0.003 % ID | % ID Heart ([1]; 30 min p.i.): 0.12 ± 0.0 % ID | % ID Hippocampus ([1]; 30 min p.i.): 0.003 ± 0.001 % ID | % ID Intestines ([1]; 30 min p.i.): 19.75 ± 5.6 % ID | % ID Kidneys ([1]; 30 min p.i.): 8.24 ± 0.3 % ID | % ID Liver ([1]; 30 min p.i.): 29.30 ± 4.8 % ID | % ID Lungs ([1]; 30 min p.i.): 0.46 ± 0.0 % ID | % ID Rest of cerebrum ([1]; 30 min p.i.): 0.064 ± 0.024 % ID | % ID Spleen + Pancreas ([1]; 30 min p.i.): 0.32 ± 0.1 % ID | % ID Stomach ([1]; 30 min p.i.): 4.81 ± 0.3 % ID | % ID Striatum ([1]; 30 min p.i.): 0.012 ± 0.001 % ID | % ID Urine ([1]; 30 min p.i.): 10.80 ± 1.2 % ID | % in plasma Intact tracer ([2]; 2 min p.i.): 70% | % in plasma Polar metabolite M1 ([2]; 2 min p.i.): 16% | % in plasma Polar metabolite M3 ([2]; 2 min p.i.): 14% | % in plasma Intact tracer ([2]; 10 min p.i.): 18% | % in plasma Polar metabolite M1 ([2]; 10 min p.i.): 10% | % in plasma Polar metabolite M2 ([2]; 10 min p.i.): 61% | % in plasma Polar metabolite M3 ([2]; 10 min p.i.): 12%

SMILES: CCCCOc1ccc(Cl)c(-c2nnc3c(C)nc4ccc(CN(C)C)cc4n23)c1 [Compound B-88]
Hippocampus cAMP (% of Control) [3]: 117 ± 20 % of Control | Hippocampus cGMP (% of Control) [3]: 150 ± 42 % of Control | Striatum cAMP (% of Control) [3]: 88 ± 12 % of Control | Striatum cGMP (% of Control) [3]: 121 ± 20 % of Control | IC50 ([4]; -log IC50 expressed in mol/L, rPDE10A2, 60 nM cAMP): 2140 nM

IC50 [6]: 1.78 nM | IC50 [4]: 35.5 nM
SMILES: Cc1ccc(Cl)c(-c2nnc3c(C)nc4ccc(C(=O)NCc5ccccn5)cc4n23)c1 [Compound B-44]
PO Dose at Max Effect [5]: 10 mg/kg | PO Max effect (cumulative agitation score over 60 min) [5]: 21 | PO LAD (lowest active dose) [5]: > 10 mg/kg

IC50 [6]: 5.25 nM | IC50 [4]: 26.9 nM
SMILES: Cc1nc2ccc(N3CCN(C)CC3)cc2n2c(-c3ccccc3Cl)nnc12 [Compound B-16, 1-(2-Chlorophenyl)-4-methyl-8-(4-methylpiperazin-1-yl)[1,2,4]triazolo[4,3-a]quinoxaline]
SC Dose at max effect [5]: 2.5 mg/kg | SC Max effect (cumulative agitation score over 60 min) [5]: 21 | SC LAD (lowest active dose) [5]: > 2.5 mg/kg

IC50 [6]: 1.95 nM | IC50 [4]: 20 nM
SMILES: CNC(=O)c1ccc2nc(C)c3nnc(-c4ccccc4Cl)n3c2c1 [Compound B-46]
PO Dose at Max Effect [5]: 10 mg/kg | PO Max effect (cumulative agitation score over 60 min) [5]: 21 | PO LAD (lowest active dose) [5]: > 10 mg/kg

IC50 [6]: 97.7 nM | IC50 [4]: 174 nM
SMILES: Cc1ncccc1-c1nnc2c(C)nc3ccc(OC(F)(F)F)cc3n12 [Compound B-168]
PO Dose at Max Effect [5]: 10 mg/kg | PO Max effect (cumulative agitation score over 60 min) [5]: 16 | PO LAD (lowest active dose) [5]: 10 mg/kg

IC50 [6]: 33.9 nM | IC50 [4]: 145 nM
SMILES: CCOc1ccc(Cl)c(-c2nnc3c(C)nc4ccc(OCCc5cccnc5)cc4n23)c1 [Compound B-121]
SC Dose at max effect [5]: 10 mg/kg | SC Max effect (cumulative agitation score over 60 min) [5]: 21 | SC LAD (lowest active dose) [5]: > 10 mg/kg
